Test results: patent US7378080B2, “Methods for identifying compounds for motion sickness, vertigo and other disorders related to balance and the perception of gravity” (Neurosciences Research Foundation, Inc., priority 1999, dated 2008)

Tested on: Canton-S flies
Test: Geotaxis maze assay of Drosophila
Format: in vivo, Drosophila melanogaster
Protocol: These strains and a standard laboratory wild-type strain (Canton-S, obtained from the Bloomington Drosophila Stock Center, Indiana University at Bloomington) were then tested in a geotaxis maze constructed according to the design of Hirsch (J. Comp. Physiol. Psychol. 52:304-308 (1959)) as modified by McMillan and McGuire (Behav. Genet. 22:557-573 (1992)), shown in FIG. 1. The geotaxis maze was fashioned from plexiglass and the maze chambers were hollowed out as semi-circular depressions in the slab, such that when the two slabs were bolted together a circular tube was formed in maze. This design thus made it possible to observe the entire time course of the assay. Additionally, this maze is easy to clean and standardize. For each strain, a geotaxis score was determined. In separate measurements, twenty to thirty flies of each strain were loaded into a starting tube on the left (see FIG. 1). The maze was set upright in front of a light source on the right, and, after turning on the light, each strain was scored according to the distribution of the flies in the nine collecting tubes on the right. A perfect score for positive geotaxis would be 1, for negative geotaxis, 9, and for an even distribution, 5. The geotaxis measurments were repeated 3-5 times for each strain (see Table 1). […]

Q: Which results are given for OCCOCCN1CCN(C(c2ccccc2)c2ccc(Cl)cc2)CC1 (centres unmarked) [hydroxyzine]?
A: Effect on geotactic behavior (in words) (Canton-S flies fed with the histamine receptor antagonist): Extreme negative geotaxis is induced; Geotaxis score (wild-type Canton-S flies fed for 2 hr on 20 mg/ml hydroxyzine, score scale 1 = positive geotaxis, 5 = even distribution, 9 = negative geotaxis, N=1 (15-25 flies), untreated Canton-S 5.53): 8.50
